{"source": "patent US4257941A", "about": "“Polycyclic nitrogen-containing compounds” (BASF Aktiengesellschaft, priority 1976, dated 1981)", "key": {"soybeans": {"system": "soybeans", "experiment": "Soybeans in a vegetation experiment in sandy loam (Example 19)", "format": "in vivo, soybean (Gieso variety)", "conditions": "for Growth height: 4 weeks", "protocol": "Soybean plants of the Gieso variety were grown in a neutral sandy loam. Fertilization took place at the time of sowing, with 0.5 g N as ammonium nitrate and 1.0 g P2 O5 as secondary potassium phosphate. […]\nAfter 4 weeks, the treated plants were much shorter than the control, and looked more compact as a result of the different angle of the leaves. The prior art compound used for comparison purposes was 2,3,5-triiodobenzoic acid (T; U.S. Pat. No. 2,978,838)."}, "rye": {"system": "rye", "experiment": "Growth height of rye, greenhouse (Example 8)", "format": "in vivo, rye (Petkuser)", "conditions": "for Plant height relative: control 100", "description": "(§1) In the greenhouse, the four cereals wheat (\"Opal\" variety), rye (\"Petkuser\"), barley (\"Villa\") and oats (\"Flamingskrone\") were sown in plastic dishes 11.5 cm in diameter in a sandy loam adequately supplied with nutrients. The active ingredients were applied at various rates to the soil and to the leaves. When applied to the soil, the active ingredient were sprayed onto the surface of the soil on the day of sowing; in the case of leaf treatment, the leaves were sprayed in the usual manner at a growth height of the plants of 10 cm. During the 18 day growth period, the treated plants grew much more slowly than the untreated control, a fact later confirmed by measurements of the stem length. Measurements were taken of 100 plants from each series.\n(§2) The prior art agent used for comparison purposes was N-2-chloroethyl-N,N,N-trimethylammonium chloride (CCC; German Printed Application DAS No. 1,294,734)."}, "barley": {"system": "barley", "experiment": "Growth height of barley, greenhouse (Example 9)", "format": "in vivo, barley (Villa)", "conditions": "for Plant height relative: control 100", "description": "as §1, §2"}, "[1]": {"conditions": "Glycine max, 672 h, read-out: Growth height relative"}}, "data": [{"smiles": "O=C(O)c1cc(I)cc(I)c1I", "note": "[T, 2,3,5-triiodobenzoic acid, reference compound]", "values": [{"measurement": "Growth height", "setting": "soybeans; 0.125 kg/ha", "result": 23.5, "unit": "cm"}, {"measurement": "Growth height", "setting": "soybeans; 0.375 kg/ha", "result": 25.0, "unit": "cm"}, {"measurement": "Growth height", "setting": "soybeans; 0.750 kg/ha", "result": 23.0, "unit": "cm"}, {"measurement": "response vs control in vivo at 125 g/ha", "setting": "soybeans; [1]", "result": 102, "unit": "%"}, {"measurement": "response vs control in vivo at 375 g/ha", "setting": "soybeans; [1]", "result": 109, "unit": "%"}, {"measurement": "response vs control in vivo at 750 g/ha", "setting": "soybeans; [1]", "result": 100, "unit": "%"}]}, {"smiles": "Brc1ccc(N2N=NC3C4CC(C5N=NC45)C32)cc1", "note": "(stereo not shown) [drawing 349]", "values": [{"measurement": "Plant height", "setting": "rye; soil, 0.5 kg/ha", "result": 23.0, "unit": "cm"}, {"measurement": "Plant height relative", "setting": "rye; soil, 0.5 kg/ha", "result": 79.3}, {"measurement": "Plant height", "setting": "rye; soil, 1.0 kg/ha", "result": 22.5, "unit": "cm"}, {"measurement": "Plant height relative", "setting": "rye; soil, 1.0 kg/ha", "result": 77.6}, {"measurement": "Plant height", "setting": "rye; soil, 2.0 kg/ha", "result": 19.0, "unit": "cm"}, {"measurement": "Plant height relative", "setting": "rye; soil, 2.0 kg/ha", "result": 65.5}, {"measurement": "Plant height", "setting": "rye; soil, 6.0 kg/ha", "result": 9.0, "unit": "cm"}, {"measurement": "Plant height relative", "setting": "rye; soil, 6.0 kg/ha", "result": 31.0}]}, {"smiles": "Clc1ccc(N2N=NC3C4CC(C5N=NC45)C32)cc1", "note": "(stereo not shown) [drawing 350]", "values": [{"measurement": "Plant height", "setting": "rye; leaf, 0.125 kg/ha", "result": 24.5, "unit": "cm"}, {"measurement": "Plant height relative", "setting": "rye; leaf, 0.125 kg/ha", "result": 83.1}, {"measurement": "Plant height", "setting": "rye; leaf, 0.5 kg/ha", "result": 20.0, "unit": "cm"}, {"measurement": "Plant height relative", "setting": "rye; leaf, 0.5 kg/ha", "result": 67.8}, {"measurement": "Plant height", "setting": "rye; leaf, 1.0 kg/ha", "result": 18.5, "unit": "cm"}, {"measurement": "Plant height relative", "setting": "rye; leaf, 1.0 kg/ha", "result": 62.7}, {"measurement": "Plant height", "setting": "rye; leaf, 2.0 kg/ha", "result": 17.5, "unit": "cm"}, {"measurement": "Plant height relative", "setting": "rye; leaf, 2.0 kg/ha", "result": 59.3}, {"measurement": "Plant height", "setting": "rye; leaf, 4.0 kg/ha", "result": 16.0, "unit": "cm"}, {"measurement": "Plant height relative", "setting": "rye; leaf, 4.0 kg/ha", "result": 54.2}]}, {"smiles": "Brc1ccc(N2N=NC3C4CC(C5N=NC45)C32)cc1", "note": "(stereo not shown) [drawing 351]", "values": [{"measurement": "Plant height", "setting": "rye; leaf, 0.125 kg/ha", "result": 25.0, "unit": "cm"}, {"measurement": "Plant height relative", "setting": "rye; leaf, 0.125 kg/ha", "result": 84.7}, {"measurement": "Plant height", "setting": "rye; leaf, 0.5 kg/ha", "result": 20.5, "unit": "cm"}, {"measurement": "Plant height relative", "setting": "rye; leaf, 0.5 kg/ha", "result": 69.5}, {"measurement": "Plant height", "setting": "rye; leaf, 1.0 kg/ha", "result": 22.0, "unit": "cm"}, {"measurement": "Plant height relative", "setting": "rye; leaf, 1.0 kg/ha", "result": 74.6}, {"measurement": "Plant height", "setting": "rye; leaf, 2.0 kg/ha", "result": 18.0, "unit": "cm"}, {"measurement": "Plant height relative", "setting": "rye; leaf, 2.0 kg/ha", "result": 61.0}, {"measurement": "Plant height", "setting": "rye; leaf, 4.0 kg/ha", "result": 18.5, "unit": "cm"}, {"measurement": "Plant height relative", "setting": "rye; leaf, 4.0 kg/ha", "result": 62.7}]}, {"smiles": "Clc1ccc(N2N=NC3C4CC(C5N=NC45)C32)cc1", "note": "(stereo not shown) [drawing 352]", "values": [{"measurement": "Plant height", "setting": "barley; soil, 0.5 kg/ha", "result": 28.0, "unit": "cm"}, {"measurement": "Plant height relative", "setting": "barley; soil, 0.5 kg/ha", "result": 88.9}, {"measurement": "Plant height", "setting": "barley; soil, 1.0 kg/ha", "result": 28.0, "unit": "cm"}, {"measurement": "Plant height relative", "setting": "barley; soil, 1.0 kg/ha", "result": 88.9}, {"measurement": "Plant height", "setting": "barley; soil, 2.0 kg/ha", "result": 23.5, "unit": "cm"}, {"measurement": "Plant height relative", "setting": "barley; soil, 2.0 kg/ha", "result": 74.6}, {"measurement": "Plant height", "setting": "barley; soil, 6.0 kg/ha", "result": 16.5, "unit": "cm"}, {"measurement": "Plant height relative", "setting": "barley; soil, 6.0 kg/ha", "result": 52.4}]}, {"smiles": "Brc1ccc(N2N=NC3C4CC(C5N=NC45)C32)cc1", "note": "(stereo not shown) [drawing 353]", "values": [{"measurement": "Plant height", "setting": "barley; soil, 0.5 kg/ha", "result": 30.5, "unit": "cm"}, {"measurement": "Plant height relative", "setting": "barley; soil, 0.5 kg/ha", "result": 96.8}, {"measurement": "Plant height", "setting": "barley; soil, 1.0 kg/ha", "result": 29.0, "unit": "cm"}, {"measurement": "Plant height relative", "setting": "barley; soil, 1.0 kg/ha", "result": 92.1}, {"measurement": "Plant height", "setting": "barley; soil, 2.0 kg/ha", "result": 24.5, "unit": "cm"}, {"measurement": "Plant height relative", "setting": "barley; soil, 2.0 kg/ha", "result": 77.8}, {"measurement": "Plant height", "setting": "barley; soil, 6.0 kg/ha", "result": 19.0, "unit": "cm"}, {"measurement": "Plant height relative", "setting": "barley; soil, 6.0 kg/ha", "result": 60.3}]}, {"smiles": "Clc1ccc(N2N=NC3C4CC(C5N=NC45)C32)cc1", "note": "(stereo not shown) [drawing 354]", "values": [{"measurement": "Plant height", "setting": "barley; leaf, 0.125 kg/ha", "result": 24.0, "unit": "cm"}, {"measurement": "Plant height relative", "setting": "barley; leaf, 0.125 kg/ha", "result": 80.0}, {"measurement": "Plant height", "setting": "barley; leaf, 0.5 kg/ha", "result": 23.0, "unit": "cm"}, {"measurement": "Plant height relative", "setting": "barley; leaf, 0.5 kg/ha", "result": 76.7}, {"measurement": "Plant height", "setting": "barley; leaf, 1.0 kg/ha", "result": 21.5, "unit": "cm"}, {"measurement": "Plant height relative", "setting": "barley; leaf, 1.0 kg/ha", "result": 71.7}, {"measurement": "Plant height", "setting": "barley; leaf, 2.0 kg/ha", "result": 20.5, "unit": "cm"}, {"measurement": "Plant height relative", "setting": "barley; leaf, 2.0 kg/ha", "result": 68.3}, {"measurement": "Plant height", "setting": "barley; leaf, 4.0 kg/ha", "result": 18.5, "unit": "cm"}, {"measurement": "Plant height relative", "setting": "barley; leaf, 4.0 kg/ha", "result": 61.7}]}, {"smiles": "Brc1ccc(N2N=NC3C4CC(C5N=NC45)C32)cc1", "note": "(stereo not shown) [drawing 355]", "values": [{"measurement": "Plant height", "setting": "barley; leaf, 0.125 kg/ha", "result": 25.5, "unit": "cm"}, {"measurement": "Plant height relative", "setting": "barley; leaf, 0.125 kg/ha", "result": 85.0}, {"measurement": "Plant height", "setting": "barley; leaf, 0.5 kg/ha", "result": 23.5, "unit": "cm"}, {"measurement": "Plant height relative", "setting": "barley; leaf, 0.5 kg/ha", "result": 78.3}, {"measurement": "Plant height", "setting": "barley; leaf, 1.0 kg/ha", "result": 22.0, "unit": "cm"}, {"measurement": "Plant height relative", "setting": "barley; leaf, 1.0 kg/ha", "result": 73.3}, {"measurement": "Plant height", "setting": "barley; leaf, 2.0 kg/ha", "result": 20.5, "unit": "cm"}, {"measurement": "Plant height relative", "setting": "barley; leaf, 2.0 kg/ha", "result": 68.3}, {"measurement": "Plant height", "setting": "barley; leaf, 4.0 kg/ha", "result": 20.0, "unit": "cm"}, {"measurement": "Plant height relative", "setting": "barley; leaf, 4.0 kg/ha", "result": 66.7}]}]}
